# Data from ChEMBL document CHEMBL3885881, “DrugMatrix”.
# Organism: Rattus norvegicus
# Assay type: toxicity, organism-based, Sprague-Dawley
# Details: in vivo, sc, 24 h, route mini-PUMP - SUBCUTANEOUS, time 1 day, vehicle 100 % SALINE; for ABSOLUTE EOSINOPHIL / ABSOLUTE LYMPHOCYTE / ABSOLUTE MONOCYTE / ABSOLUTE SEGMENTED NEUTROPHIL / BASOPHIL / EOSINOPHIL / ERYTHROCYTE COUNT / HEMATOCRIT / HEMOGLOBIN / LEUKOCYTE COUNT / LYMPHOCYTE / MEAN CORPUSCULAR HEMOGLOBIN / MEAN CORPUSCULAR HEMOGLOBIN CONCENTRATION / MEAN CORPUSCULAR VOLUME / MONOCYTE / NEUTROPHIL / NUCLEATED RED BLOOD CELLS / PLATELET COUNT: tissue Blood; for ALANINE AMINOTRANSFERASE / ALBUMIN / ALKALINE PHOSPHATASE / ASPARTATE AMINOTRANSFERASE / BLOOD UREA NITROGEN / CARBON DIOXIDE / CHLORIDE / CHOLESTEROL / CREATININE / GLUCOSE / LACTATE DEHYDROGENASE / LIPASE / PHOSPHORUS / POTASSIUM / SODIUM / TOTAL BILIRUBIN / TOTAL PROTEIN / URIC ACID: tissue Plasma
# [1] = 0 mg/kg, vehicle control, dose level Control
# [2] = […], dose 0.44 mg/Kg, dose level High
# Description: DrugMatrix - Regimen: Single
smiles,measurement,setting,value
CNC[C@H](O)c1cccc(O)c1 [PHENYLEPHRINE],ABSOLUTE EOSINOPHIL,[1],26.17 CELLS/uL
same,ABSOLUTE LYMPHOCYTE,[1],10985.83 CELLS/uL
same,ABSOLUTE MONOCYTE,[1],234.5 CELLS/uL
same,ABSOLUTE SEGMENTED NEUTROPHIL,[1],1753.5 CELLS/uL
same,BASOPHIL,[1],0%
same,EOSINOPHIL,[1],0.17%
same,ERYTHROCYTE COUNT,[1],5.64 x10E6/uL
same,HEMATOCRIT,[1],34.52%
same,HEMOGLOBIN,[1],12.68 G/DL
same,LEUKOCYTE COUNT,[1],13 x10E3/uL
same,LYMPHOCYTE,[1],84.5%
same,MEAN CORPUSCULAR HEMOGLOBIN,[1],22.5 pg
same,MEAN CORPUSCULAR HEMOGLOBIN CONCENTRATION,[1],36.78 G/DL
same,MEAN CORPUSCULAR VOLUME,[1],61.18 fL
same,MONOCYTE,[1],1.83%
same,NEUTROPHIL,[1],13.5%
same,NUCLEATED RED BLOOD CELLS,[1],0.17 /100WBC
same,PLATELET COUNT,[1],679.17 x10E3/uL
same,ALANINE AMINOTRANSFERASE,[1],42.67 u/L
same,ALBUMIN,[1],3.77 G/DL
same,ALKALINE PHOSPHATASE,[1],291.17 u/L
same,ASPARTATE AMINOTRANSFERASE,[1],74.5 u/L
same,BLOOD UREA NITROGEN,[1],15.33 mg/dL
same,CARBON DIOXIDE,[1],30 mmol/L
same,CHLORIDE,[1],100.83 MEQ/L
same,CHOLESTEROL,[1],65.33 mg/dL
same,CREATININE,[1],0.15 mg/dL
same,GLUCOSE,[1],179.83 mg/dL
same,LACTATE DEHYDROGENASE,[1],162.67 u/L
same,LIPASE,[1],8.5 u/L
same,PHOSPHORUS,[1],12.2 mg/dL
same,POTASSIUM,[1],5.73 MEQ/L
same,SODIUM,[1],144.7 MEQ/L
same,TOTAL BILIRUBIN,[1],0.15 mg/dL
same,TOTAL PROTEIN,[1],5.87 G/DL
same,URIC ACID,[1],1.93 mg/dL
same,ABSOLUTE EOSINOPHIL,[2],0 CELLS/uL
same,ABSOLUTE LYMPHOCYTE,[2],12992 CELLS/uL
same,ABSOLUTE MONOCYTE,[2],416.33 CELLS/uL
same,ABSOLUTE SEGMENTED NEUTROPHIL,[2],3025 CELLS/uL
same,BASOPHIL,[2],0%
same,EOSINOPHIL,[2],0%
same,ERYTHROCYTE COUNT,[2],6.07 x10E6/uL
same,HEMATOCRIT,[2],36.37%
same,HEMOGLOBIN,[2],13.2 G/DL
same,LEUKOCYTE COUNT,[2],16.43 x10E3/uL
same,LYMPHOCYTE,[2],79%
same,MEAN CORPUSCULAR HEMOGLOBIN,[2],21.77 pg
same,MEAN CORPUSCULAR HEMOGLOBIN CONCENTRATION,[2],36.27 G/DL
same,MEAN CORPUSCULAR VOLUME,[2],59.93 fL
same,MONOCYTE,[2],2.33%
same,NEUTROPHIL,[2],18.67%
same,NUCLEATED RED BLOOD CELLS,[2],0 /100WBC
same,PLATELET COUNT,[2],1118.67 x10E3/uL
same,ALANINE AMINOTRANSFERASE,[2],37.33 u/L
same,ALBUMIN,[2],3.83 G/DL
same,ALKALINE PHOSPHATASE,[2],259 u/L
same,ASPARTATE AMINOTRANSFERASE,[2],64.33 u/L
same,BLOOD UREA NITROGEN,[2],11.67 mg/dL
same,CARBON DIOXIDE,[2],30 mmol/L
same,CHLORIDE,[2],101.67 MEQ/L
same,CHOLESTEROL,[2],75.67 mg/dL
same,CREATININE,[2],0.16 mg/dL
same,GLUCOSE,[2],171.33 mg/dL
same,LACTATE DEHYDROGENASE,[2],133.67 u/L
same,LIPASE,[2],9 u/L
same,PHOSPHORUS,[2],14.13 mg/dL
same,POTASSIUM,[2],6.67 MEQ/L
same,SODIUM,[2],146.87 MEQ/L
same,TOTAL BILIRUBIN,[2],0.1 mg/dL
same,TOTAL PROTEIN,[2],5.97 G/DL
same,URIC ACID,[2],3.6 mg/dL
